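Following 48 hours of exposure in 96-well plates, responses at five concentrations were used to interpolate endpoints linearly. Definition used: TGI = concentration required for complete inhibition of growth.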
Columns and labels:
Experiment in all cases: growth of human tumour cells (NCI), 48 h
RPMI-8226 leukemia = test system: RPMI-8226 leukemia
NCI-H226 lung = test system: NCI-H226 lung
HOP-62 NSCLC = test system: HOP-62 NSCLC
MALME-3M melanoma = test system: MALME-3M melanoma
HT29 colon = test system: HT29 colon
HCT-116 colon = test system: HCT-116 colon
M14 melanoma = test system: M14 melanoma
786-0 renal = test system: 786-0 renal
DMS 114 small cell lung = test system: DMS 114 small cell lung
SR leukemia = test system: SR leukemia
DMS 273 small cell lung = test system: DMS 273 small cell lung
HCT-15 colon = test system: HCT-15 colon
LXFL 529 NSCLC = test system: LXFL 529 NSCLC
K-562 leukemia = test system: K-562 leukemia
HOP-92 NSCLC = test system: HOP-92 NSCLC
A498 renal = test system: A498 renal
M19-MEL melanoma = test system: M19-MEL melanoma
HOP-18 NSCLC = test system: HOP-18 NSCLC
SK-MEL-28 melanoma = test system: SK-MEL-28 melanoma
CCRF-CEM leukemia = test system: CCRF-CEM leukemia
SK-MEL-5 melanoma = test system: SK-MEL-5 melanoma
SN12C renal = test system: SN12C renal
A549 NSCLC = test system: A549 NSCLC
SW-620 colon = test system: SW-620 colon
CAKI-1 renal = test system: CAKI-1 renal
SF-268 CNS = test system: SF-268 CNS
U251 CNS = test system: U251 CNS
SNB-75 CNS = test system: SNB-75 CNS
SK-MEL-2 melanoma = test system: SK-MEL-2 melanoma
SNB-78 CNS = test system: SNB-78 CNS
SK-OV-3 ovarian = test system: SK-OV-3 ovarian
LOX IMVI melanoma = test system: LOX IMVI melanoma
OVCAR-8 ovarian = test system: OVCAR-8 ovarian
ACHN renal = test system: ACHN renal
TK-10 renal = test system: TK-10 renal
HL-60(TB) leukemia = test system: HL-60(TB) leukemia
UACC-257 melanoma = test system: UACC-257 melanoma
XF 498 CNS = test system: XF 498 CNS
RXF-631 renal = test system: RXF-631 renal
SF-295 CNS = test system: SF-295 CNS
SF-539 CNS = test system: SF-539 CNS
RXF 393 renal = test system: RXF 393 renal
HCC-2998 colon = test system: HCC-2998 colon
OVCAR-4 ovarian = test system: OVCAR-4 ovarian
IGROV1 ovarian = test system: IGROV1 ovarian
NCI-H460 lung = test system: NCI-H460 lung
UACC-62 melanoma = test system: UACC-62 melanoma
EKVX NSCLC = test system: EKVX NSCLC
OVCAR-5 ovarian = test system: OVCAR-5 ovarian
KM12 colon = test system: KM12 colon
KM20L2 colon = test system: KM20L2 colon
OVCAR-3 ovarian = test system: OVCAR-3 ovarian
DLD-1 colon = test system: DLD-1 colon
UO-31 renal = test system: UO-31 renal
NCI-H23 lung = test system: NCI-H23 lung
COLO 205 colon = test system: COLO 205 colon
MOLT-4 leukemia = test system: MOLT-4 leukemia
PC-3 prostate = test system: PC-3 prostate
MDA-MB-231 breast = test system: MDA-MB-231 breast
MCF7 breast = test system: MCF7 breast
DU-145 prostate = test system: DU-145 prostate
NCI/ADR-RES ovarian = test system: NCI/ADR-RES ovarian
T-47D breast = test system: T-47D breast
BT-549 breast = test system: BT-549 breast
NCI-H522 lung = test system: NCI-H522 lung
SNB-19 CNS = test system: SNB-19 CNS

With `COC(=O)C1=C(c2ccc3c(c2)OCO3)OC(c2ccc3c(c2)OCO3)C1` (stereo not given) the TGI (RPMI-8226 leukemia) was over 100 µM, the TGI (NCI-H226 lung) was over 100 µM and the TGI (HOP-62 NSCLC) was over 100 µM. The TGI (MALME-3M melanoma) was over 100 µM, the TGI (HT29 colon) was over 100 µM and the TGI (HCT-116 colon) was over 100 µM. It also gave a TGI (M14 melanoma) of over 100 µM, a TGI (786-0 renal) of over 100 µM and a TGI (DMS 114 small cell lung) of over 100 µM. It also gave a TGI (SR leukemia) of over 100 µM, a TGI (DMS 273 small cell lung) of over 100 µM and a TGI (HCT-15 colon) of over 100 µM. The TGI (LXFL 529 NSCLC) was over 100 µM, the TGI (K-562 leukemia) was over 100 µM and the TGI (HOP-92 NSCLC) was over 100 µM. The TGI (A498 renal) was over 100 µM, the TGI (M19-MEL melanoma) was over 100 µM and the TGI (HOP-18 NSCLC) was over 100 µM. It also gave a TGI (SK-MEL-28 melanoma) of over 100 µM, a TGI (CCRF-CEM leukemia) of over 100 µM and a TGI (SK-MEL-5 melanoma) of over 100 µM. It also gave a TGI (SN12C renal) of over 100 µM, a TGI (A549 NSCLC) of over 100 µM and a TGI (SW-620 colon) of over 100 µM. It also gave a TGI (CAKI-1 renal) of over 100 µM, a TGI (SF-268 CNS) of over 100 µM and a TGI (U251 CNS) of over 100 µM. The TGI (SNB-75 CNS) was over 100 µM, the TGI (SK-MEL-2 melanoma) was over 100 µM and the TGI (SNB-78 CNS) was over 100 µM. The TGI (SK-OV-3 ovarian) was over 100 µM, the TGI (LOX IMVI melanoma) was over 100 µM and the TGI (OVCAR-8 ovarian) was over 100 µM. The TGI (ACHN renal) was over 100 µM, the TGI (TK-10 renal) was over 100 µM and the TGI (HL-60(TB) leukemia) was over 100 µM. The TGI (UACC-257 melanoma) was over 100 µM, the TGI (XF 498 CNS) was over 100 µM and the TGI (RXF-631 renal) was over 100 µM. The TGI (SF-295 CNS) was over 100 µM, the TGI (SF-539 CNS) was over 100 µM and the TGI (RXF 393 renal) was over 100 µM. The TGI (HCC-2998 colon) was over 100 µM, the TGI (OVCAR-4 ovarian) was over 100 µM and the TGI (IGROV1 ovarian) was over 100 µM. The TGI (NCI-H460 lung) was over 100 µM, the TGI (UACC-62 melanoma) was over 100 µM and the TGI (EKVX NSCLC) was over 100 µM. The TGI (OVCAR-5 ovarian) was over 100 µM, the TGI (KM12 colon) was over 100 µM and the TGI (KM20L2 colon) was over 100 µM. The TGI (OVCAR-3 ovarian) was over 100 µM, the TGI (DLD-1 colon) was over 100 µM and the TGI (UO-31 renal) was over 100 µM. The TGI (NCI-H23 lung) was over 100 µM, the TGI (COLO 205 colon) was over 100 µM and the TGI (MOLT-4 leukemia) was over 100 µM.
`O=C1c2cc([N+](=O)[O-])cc3cc([N+](=O)[O-])cc(c23)C(=O)N1CCCNCCNCCCN1C(=O)c2cc([N+](=O)[O-])cc3cc([N+](=O)[O-])cc(c23)C1=O` gave a TGI (PC-3 prostate) of 7.87 µM, a TGI (RPMI-8226 leukemia) of 0.278 µM and a TGI (NCI-H226 lung) of 2.57 µM. The TGI (HOP-62 NSCLC) was 3.07 µM, the TGI (MALME-3M melanoma) was 1.33 µM and the TGI (HT29 colon) was 5.25 µM. It also gave a TGI (HCT-116 colon) of 0.667 µM, a TGI (MDA-MB-231 breast) of 3.45 µM and a TGI (M14 melanoma) of 3.31 µM. For the same compound, the TGI (786-0 renal) was 3.35 µM, the TGI (DMS 114 small cell lung) was 1.38 µM and the TGI (DMS 273 small cell lung) was 0.42 µM. The TGI (HCT-15 colon) was over 30.6 µM, the TGI (LXFL 529 NSCLC) was 0.326 µM and the TGI (K-562 leukemia) was 14.9 µM. It also gave a TGI (HOP-92 NSCLC) of 1.82 µM, a TGI (MCF7 breast) of 11.7 µM and a TGI (DU-145 prostate) of 19.4 µM. It also gave a TGI (A498 renal) of 13.4 µM, a TGI (M19-MEL melanoma) of 0.752 µM and a TGI (HOP-18 NSCLC) of 5.63 µM. It also gave a TGI (SK-MEL-28 melanoma) of 2.11 µM, a TGI (CCRF-CEM leukemia) of 6.46 µM and a TGI (SK-MEL-5 melanoma) of 1.97 µM. It also gave a TGI (SN12C renal) of 2.2 µM, a TGI (A549 NSCLC) of 3.6 µM and a TGI (SW-620 colon) of 4.52 µM. The TGI (NCI/ADR-RES ovarian) was over 100 µM, the TGI (CAKI-1 renal) was 8.4 µM and the TGI (SF-268 CNS) was 2.03 µM. The TGI (U251 CNS) was 3.49 µM, the TGI (SNB-75 CNS) was 2.57 µM and the TGI (SK-MEL-2 melanoma) was 0.323 µM. The TGI (SNB-78 CNS) was 1.14 µM, the TGI (SK-OV-3 ovarian) was 8.48 µM and the TGI (OVCAR-8 ovarian) was 3.39 µM. For the same compound, the TGI (ACHN renal) was over 23.2 µM, the TGI (TK-10 renal) was 7.04 µM and the TGI (HL-60(TB) leukemia) was 1.13 µM. The TGI (UACC-257 melanoma) was 2.52 µM, the TGI (XF 498 CNS) was 0.436 µM and the TGI (SF-295 CNS) was 8 µM. It also gave a TGI (T-47D breast) of 6.72 µM, a TGI (SF-539 CNS) of 1.26 µM and a TGI (RXF 393 renal) of 0.375 µM. It also gave a TGI (HCC-2998 colon) of 1.51 µM, a TGI (OVCAR-4 ovarian) of 3.31 µM and a TGI (IGROV1 ovarian) of 1.74 µM. It also gave a TGI (NCI-H460 lung) of 3.56 µM, a TGI (UACC-62 melanoma) of 1.48 µM and a TGI (EKVX NSCLC) of 10 µM. It also gave a TGI (OVCAR-5 ovarian) of 6.68 µM, a TGI (BT-549 breast) of 5.51 µM and a TGI (KM12 colon) of 2.51 µM. The TGI (KM20L2 colon) was 5.09 µM, the TGI (OVCAR-3 ovarian) was 2.35 µM and the TGI (DLD-1 colon) was 3.24 µM. For the same compound, the TGI (UO-31 renal) was 3.35 µM, the TGI (NCI-H23 lung) was 2.41 µM and the TGI (NCI-H522 lung) was 1.13 µM. For the same compound, the TGI (SNB-19 CNS) was over 23.3 µM, the TGI (COLO 205 colon) was 0.849 µM and the TGI (MOLT-4 leukemia) was 1.41 µM.
